# Results taken from US11285144B2, “Use of CDK8 inhibitors to treat diseases of inflammation and autoimmunity” (THE BROAD INSTITUTE, INC., priority 2016, dated 2022).
# “Also recorded” adds a separate entry of the source.
# Assays:
# [1] = test system: Zymosan A-stimulated BMDCs; assay: Cytokine production by Zymosan A-stimulated BMDCs; type: cell-based, mouse
# Text: Towards the goal of identifying new mechanisms of IL-10 regulation, 59,346 small molecules were screened for the ability to enhance IL-10 production by activated bone marrow-derived dendritic cells (BMDCs) using a high-throughput assay developed previously (Sundberg et al., PNAS 111:12468-12473, 2014). Compounds were derived from both commercial collections and structurally and skeletally diverse libraries prepared by diversity-oriented synthesis (DOS). More than 60 hit compounds were identified that reproducibly enhance IL-10 production in a concentration-dependent manner (Table 1). Three distinct chemotypes were prioritized for follow-up based on potency and an initial analysis of structure-activity relationship (SAR) with respect to core scaffold, stereochemistry and side chains (FIG. 2a).
# (§1) The pyridinyl tetrahydroquinoline BRD6989 (10) emerged as a prioritized hit in the screen (FIG. 2a and Table 2). […] Thus, BRD6989 enhances IL-10 production in activated human and murine macrophages and dendritic cells by a mechanism that appears most pronounced following stimulation of toll-like receptors-7 (TLR7) and TLR8 by R848.
# [2] = test system: mouse bone marrow-derived macrophages (BMDMs); assay: IL-10 production in BMDMs activated with Zymosan A or R848; type: cell-based
# Text: as §1
# [3] = test system: human, monocyte-derived DCs; assay: IL-10 production in human monocyte-derived DCs stimulated with R848; type: cell-based
# Text: as §1
# Pre-treatment with these CDK8/19 inhibitors recapitulated the IL-10 potentiating activity of BRD6989 in both BMDCs (FIG. 9b) along with human DCs derived from two independent donors in the context of R848 stimulation (FIGS. 9c and 10a).
# [4] = molecular target: Cyclin C/CDK8 (Homo sapiens, UniProt P49336); assay: Binding to Cyclin C/CDK8 complex
# Text: (§2) Given that the pyridine core of BRD6989 is a common kinase-binding motif (Xing et al., J Comput Aided Mol Des 28:13-23, 2014), its activity against 414 kinases was profiled using a series of binding and activity assays. […] Binding of BRD6989 to CDK8, and its paralog CDK19, was confirmed using an orthogonal kinase-profiling format.
# [5] = molecular target: recombinant Cyclin C/CDK19 (Homo sapiens, UniProt Q9BWU1); assay: Kinase activity of recombinant Cyclin C/CDK19; type: biochemical; settings: recombinant complex
# Text: (§3) Together, these kinase profiling, binding assay, enzyme inhibition and cell-based data identify the Mediator-associated kinases CDK8, and to a lesser degree CDK19, as molecular targets of BRD6989.
# [6] = test system: Cyclin B/CDK1, Cyclin A/CDK2, p35/CDK5, Cyclin H/CDK7, Cyclin T/CDK9; assay: Activity of other CDKs; type: biochemical; settings: CDKs involved in cell cycle regulation
# Text: (a) Binding of the indicated concentrations of BRD6989 to CDK8/Cyclin C complexes (each point corresponds to mean±S.D.; n=3 biological replicates from 1 independent experiment). (b-f) Effect of the indicated concentrations of BRD6989 on the activity of (b) Cyclin B/CDK1, (c) Cyclin A/CDK2, (d) p35/CDK5, (e) Cyclin H/CDK7, and (f) Cyclin T/CDK9 (each point corresponds to mean±S.D.; n=3 biological replicates from 1 independent experiment).
# as §3
# [7] = test system: 414 kinases; assay: Kinase profiling by binding and activity assays
# Text: as §2
# [8] = test system: STAT1; assay: STAT1 phosphorylation in IFNγ-stimulated BMDCs; type: cell-based, mouse; settings: IFNγ-induced
# Text: as §3
# [9] = test system: R848-stimulated BMDCs; assay: IL-10 mRNA levels in BMDCs following R848 stimulation; type: cell-based, mouse; settings: pre-treatment, then R848 stimulation
# Experimental: FIG. 5—Cellular activities of the IL-10 hit BRD6989. […] (d) Effect of BRD6989 on IL-10 production in human DCs stimulated with R848 (each point corresponds to mean±S.D.; n=3 biological replicates from 1 independent experiment using cells derived from 1 donor). (e) Chemical structure of the pan-SIK inhibitor HG-9-91-01. (f) Effect of pre-treating BMDCs with HG-9-91-01 (0.5 μM) or BRD6989 (5 μM) on IL-10 mRNA levels following stimulation with R848 (each point corresponds to mean±S.D.; n=4 biological replicates from 1 independent experiment; *, P<0.05; ***, P<0.001 using unpaired, two-tailed Student's t test). Data from all panels is representative of at least 2 independent experiments.
# Based on its ability to selectively potentiate IL-10 production by a mechanism that appears temporally distinct from CREB activation, BRD6989 was prioritized for MOA studies.
# [10] = test system: Cyclin C/CDK8 complexes in BMDCs; assay: Cytokine production by R848-stimulated BMDCs from CcncΔ/Δ or Ccncf/f mice; type: cell-based, mouse
# Experimental: Next, to determine whether IL-10 potentiation by CDK8 inhibitors requires functional Cyclin C/CDK8 complexes, differentiation was performed of BMDCs from CcncΔ/Δ mice in which Cyclin C can be specifically disrupted in hematopoietic cells relative to Ccncf/f littermates, which lack the polyinosinic:polycytidylic acid (polyI:C)-responsive Mx1-Cre (Li et al., Nature Cell Biology 16; 1080, 2014) (FIG. 11a). […] The impaired response of BMDCs lacking Cyclin C to BRD6989 and dCA are consistent with a model in which CDK8 restrains IL-10 production during activation of wild type myeloid cells.
# [11] = test system: BMDMs; assay: TF-Seq pathway reporter assay in BMDMs; type: cell-based, mouse
# Experimental: To identify CDK8-responsive signaling pathways, an integrative genomics approach termed transcription factor sequencing (TF-Seq) was applied, in which consensus transcription factor binding sites drive expression of 58 reporter constructs bearing unique sequence tags (O'Connell et al., Cell Syst 2:323-34, 2016).
# Given that c-Jun's ability to activate transcription is tightly regulated by phosphorylation, it was determined whether CDK8 inhibition affects c-Jun phosphorylation in activated BMDCs.
# Chain of recombinant Cyclin C/CDK19 (Q9BWU1 whole entry, species assumed): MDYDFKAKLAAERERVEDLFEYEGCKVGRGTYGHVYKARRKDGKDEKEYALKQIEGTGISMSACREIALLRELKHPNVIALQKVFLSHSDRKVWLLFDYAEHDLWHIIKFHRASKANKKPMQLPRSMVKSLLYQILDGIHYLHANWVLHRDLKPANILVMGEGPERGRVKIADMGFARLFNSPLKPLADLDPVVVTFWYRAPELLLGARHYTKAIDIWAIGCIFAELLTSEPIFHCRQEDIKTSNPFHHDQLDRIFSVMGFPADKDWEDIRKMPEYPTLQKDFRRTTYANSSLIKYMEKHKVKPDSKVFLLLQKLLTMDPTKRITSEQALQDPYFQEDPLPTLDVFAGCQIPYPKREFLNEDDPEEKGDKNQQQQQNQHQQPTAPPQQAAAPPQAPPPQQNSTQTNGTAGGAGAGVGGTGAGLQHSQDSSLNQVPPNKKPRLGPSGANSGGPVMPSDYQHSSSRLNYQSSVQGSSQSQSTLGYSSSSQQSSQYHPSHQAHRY
# Chain of recombinant Cyclin C/CDK19 (P24863 whole entry partner, species assumed): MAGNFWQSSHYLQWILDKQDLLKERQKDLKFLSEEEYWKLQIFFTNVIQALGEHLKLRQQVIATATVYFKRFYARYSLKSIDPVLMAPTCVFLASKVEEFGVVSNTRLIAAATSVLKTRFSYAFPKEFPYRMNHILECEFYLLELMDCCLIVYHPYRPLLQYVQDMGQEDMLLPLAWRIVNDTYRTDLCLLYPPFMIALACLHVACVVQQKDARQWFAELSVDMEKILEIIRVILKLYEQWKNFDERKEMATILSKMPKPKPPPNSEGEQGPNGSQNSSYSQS
# Chain of Cyclin C/CDK8 (P49336 whole entry, species assumed): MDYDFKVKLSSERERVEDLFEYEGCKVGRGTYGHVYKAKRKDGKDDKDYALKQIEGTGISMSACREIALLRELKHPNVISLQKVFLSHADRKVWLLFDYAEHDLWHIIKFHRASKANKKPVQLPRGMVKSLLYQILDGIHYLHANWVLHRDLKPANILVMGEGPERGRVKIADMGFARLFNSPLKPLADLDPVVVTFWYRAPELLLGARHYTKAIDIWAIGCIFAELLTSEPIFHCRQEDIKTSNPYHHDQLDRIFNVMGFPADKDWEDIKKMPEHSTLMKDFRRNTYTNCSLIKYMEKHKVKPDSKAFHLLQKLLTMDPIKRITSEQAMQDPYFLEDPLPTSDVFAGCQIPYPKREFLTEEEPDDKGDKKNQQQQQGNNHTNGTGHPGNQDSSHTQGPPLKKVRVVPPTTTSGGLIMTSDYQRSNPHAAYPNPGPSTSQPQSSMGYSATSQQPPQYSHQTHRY
# Chain of Cyclin C/CDK8 (P24863 whole entry partner, species assumed): as the sequence (P24863 whole entry partner, species assumed) above
structure (smiles),measurement,setting,value
CC1CCc2nc(N)c(C#N)c(-c3cccnc3)c2C1 (stereo not shown) [BRD6989],EC50,"[1]; Mus musculus, BMDC, pre-treatment 48 hr, Zymosan A 18 hr, read-out: IL-10 production EC50",~1000 nM
same,production of IL-12p40,[1]; Zymosan A-induced,largely unchanged
same,production of TNFα,[1]; Zymosan A-induced,largely unchanged
same,release of IL-6,[1]; Zymosan A-induced,suppressed
same,production of IL-1β,[1]; Zymosan A-stimulated / activated BMDCs,largely unchanged
same,IL-1β production,[1]; stimulation with R848 or Zymosan A,minimally elevates IL-1β production
same,IL-10 production,[2],increased IL-10 production; also recorded: up-regulates IL-10 production
same,IL-10 production,[3],up-regulated IL-10
same,IC50,[4],~200 nM
same,IC50,[5],> 30000 nM
same,inhibition of several other CDKs,[6],not the activity of several CDKs involved in cell cycle regulation; also recorded: does not inhibit
same,secondary targets in kinase profiling,[7]; both kinase profiling experiments,"phosphatidylinositol-4,5-bisphosphate 3-kinases C2A (PI3KC2A) and PI3KCG as secondary targets"
same,kinase selectivity,[7]; kinase profiling,remarkable selectivity
same,JAK-mediated phosphorylation of STAT1 Y701,[8],did not affect
same,phosphorylation of STAT1 at S727,[8],inhibited; also recorded: suppresses phosphorylation
same,phosphorylation of STAT1 at S727,[8]; listed as BRD-6989,Dose dependent inhibition of CDK8 dependent
same,IL-10 mRNA levels,[9],sustained increase beginning at 4 hours and extending to 24 hours
same,IL-10 upregulation in Ccncf/f BMDCs,[10],remained intact
same,IL-10 upregulation in CcncΔ/Δ BMDCs,[10]; Cyclin C deleted,failed to upregulate IL-10
same,IL-6 production in CcncΔ/Δ BMDCs,[10]; saturating concentrations,no further reduction
same,STAT1:STAT2 reporter activity,[11]; 2 hours after stimulation of BMDMs,suppressed induction of STAT1:STAT2 activity
same,NF-κB activation,[11]; all stimuli tested,suppressed NF-κB activation to a varying degree
